Earlier results, collected in patent publication US20170231974A1, “Combined Use of an Alpha-Adrenergic Receptor Antagonist and an Anti-Muscarinic Agent” (Astellas Ireland Co., Ltd., priority 2008, published 2017).
Counter-ions that a name gives are not always drawn.

Tested on: male patients with lower urinary tract symptoms associated with prostatic hyperplasia
[1] = male patients, at least 1 urgency episode per day and 8 or more micturitions per day

Structure (SMILES)	acute urinary retention (AUR) (added to doxazosin)	effect on urinary flow rate (added to doxazosin)	improvement of storage symptom score [1]	improvement of total I-PSS [1]	improvement of voiding score [1]
CCCOC(C(=O)OC1CCN(C)CC1)(c1ccccc1)c1ccccc1 [Propiverine, propiverine hydrochloride]	no acute urinary retention (AUR) was observed	did not affect the urinary flow rate			
COc1cc2nc(N3CCN(C(=O)C4COc5ccccc5O4)CC3)nc(N)c2cc1OC (centres unmarked) [doxazosin]			2.9 points	7.3 points	4.5 points
